Here are results for 27 molecules from US9464084B2, “P2X7 modulators” (Janssen Pharmaceutica NV, priority 2013, dated 2016).

For the first assay, the target named is P2X7 (Homo sapiens (Human), UniProt Q99572). Briefly: P2X7 antagonism in human PBMCs (LPS + Bz-ATP induced IL-1β release, ELISA).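 Also: PBMCs from donor human blood, with a further 1.5 h incubation of the cells in the assay.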 Format: cell-based. The following applies: compound 1 μM, LPS 30 ng/ml, Bz-ATP 0.5 mM. Background: An ELISA detects its analyte on a solid surface through an enzyme-linked reagent.
Chain of P2X7 (Q99572 whole entry): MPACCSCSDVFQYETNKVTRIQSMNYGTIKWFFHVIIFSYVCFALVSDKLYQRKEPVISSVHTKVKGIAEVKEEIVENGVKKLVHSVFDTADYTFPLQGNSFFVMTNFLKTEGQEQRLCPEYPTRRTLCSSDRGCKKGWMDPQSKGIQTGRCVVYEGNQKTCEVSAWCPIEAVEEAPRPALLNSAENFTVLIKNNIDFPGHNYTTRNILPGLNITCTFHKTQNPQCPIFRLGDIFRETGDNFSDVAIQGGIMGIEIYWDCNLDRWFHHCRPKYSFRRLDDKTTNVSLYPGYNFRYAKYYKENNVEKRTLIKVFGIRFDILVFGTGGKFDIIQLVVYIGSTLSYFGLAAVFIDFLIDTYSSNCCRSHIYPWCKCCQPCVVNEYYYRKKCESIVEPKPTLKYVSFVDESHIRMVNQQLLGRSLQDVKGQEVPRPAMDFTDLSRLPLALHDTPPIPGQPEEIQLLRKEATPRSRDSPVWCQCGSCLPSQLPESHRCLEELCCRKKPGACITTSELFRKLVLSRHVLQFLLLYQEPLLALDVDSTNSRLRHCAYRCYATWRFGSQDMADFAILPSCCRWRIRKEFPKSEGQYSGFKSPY
Turning to `Cn1nc2c(c1-c1ccccc1)CCN(C(=O)c1cccc(Cl)c1Cl)C2` [Example 102, 6-[(2,3-Dichlorophenyl)carbonyl]-2-methyl-3-phenyl-4,5,6,7-tetrahydro-2H-pyrazolo[3,4-c]pyridine], the “PBMC 1 μM (% control)” value worked out at 18.0 % control.

For `O=C(c1cccc(C(F)(F)F)c1Cl)N1C=Cc2c(ncn2-c2ccccc2)C1` [Example 49, 5-{[2-Chloro-3-(trifluoromethyl)phenyl]carbonyl}-1-phenyl-4,5-dihydro-1H-imidazo[4,5-c]pyridine], the “PBMC 1 μM (% control)” value was 93.5 % control.

Regarding `Cn1nc2c(c1-c1ccc(F)cc1)CCN(C(=O)c1cccc(C(F)(F)F)c1Cl)C2` [Example 105, 6-{[2-Chloro-3-(trifluoromethyl)phenyl]carbonyl}-3-(4-fluorophenyl)-2-methyl-4,5,6,7-tetrahydro-2H-pyrazolo[3,4-c]pyridine], the “PBMC 1 μM (% control)” value is recorded as 51.0 % control.

Take `C[C@@H]1c2nnn(-c3cnccn3)c2CCN1C(=O)c1cccc(C(F)(F)F)c1Cl` (single isomer, unassigned) [Example 74, (4R*)-5-{[2-Chloro-3-(trifluoromethyl)phenyl]carbonyl}-4-methyl-1-pyrazin-2-yl-4,5,6,7-tetrahydro-1H-[1,2,3]triazolo[4,5-c]pyridine]: the “PBMC 1 μM (% control)” value was determined as 102.6 % control.

As to `Cn1nc2c(c1-c1ccc(F)cc1)CCN(C(=O)c1cccc(Cl)c1Cl)C2` [Example 326, (2,3-dichlorophenyl)(3-(4-fluorophenyl)-2-methyl-4,5-dihydro-2H-pyrazolo[3,4-c]pyridin-6(7H)-yl)methanone], the “PBMC 1 μM (% control)” value is on record as 92.0 % control.

The assay is the same for the next values; noted with them: compound 10 μM, LPS 30 ng/ml, Bz-ATP 0.5 mM.
`Cc1c(C(=O)N2CCc3c(nnn3-c3ncccn3)C2C)cccc1C(F)(F)F` (stereo not drawn) [Example 282, (4-methyl-1-(pyrimidin-2-yl)-6,7-dihydro-1H-[1,2,3]triazolo[4,5-c]pyridin-5(4H)-yl)(2-methyl-3-(trifluoromethyl)phenyl)methanone]: the “PBMC 10 μM (% control)” value is on record as −5.5 % control.

With `C[C@H]1Cc2c(nnn2-c2ccccn2)CN1C(=O)c1cccc(C(F)(F)F)c1Cl` (single isomer, unassigned) [Example 118, 5-{[2-Chloro-3-(trifluoromethyl)phenyl]carbonyl}-(S*)-6-methyl-1-pyridin-2-yl-4,5,6,7-tetrahydro-1H-[1,2,3]triazolo[4,5-c]pyridine], the “PBMC 10 μM (% control)” value was found to be 12.6 % control.

For `CC1Cc2c(nnn2-c2ncccc2F)CN1C(=O)c1cccc(Cl)c1Cl` (stereo not drawn) [Example 161, (2,3-Dichlorophenyl)(1-(3-fluoropyridin-2-yl)-6-methyl-6,7-dihydro-1H-[1,2,3]triazolo[4,5-c]pyridin-5(4H)-yl)methanone], the “PBMC 10 μM (% control)” value was −0.9 % control.

`CC1Cc2c(nnn2-c2ccccc2)CN1C(=O)c1cccc(C(F)(F)F)c1Cl` (stereo not drawn) [Example 290, (2-chloro-3-(trifluoromethyl)phenyl)(6-methyl-1-phenyl-6,7-dihydro-1H-[1,2,3]triazolo[4,5-c]pyridin-5(4H)-yl)methanone]: the “PBMC 10 μM (% control)” value was −11.2 % control.

On to `Cc1cc(C)nc(-n2nnc3c2CCN(C(=O)c2cccc(C(F)(F)F)c2Cl)[C@H]3C)n1` (single isomer, unassigned) [Example 182, (S*)-(2-chloro-3-(trifluoromethyl)phenyl)(1-(4,6-dimethylpyrimidin-2-yl)-4-methyl-6,7-dihydro-1H-[1,2,3]triazolo[4,5-c]pyridin-5(4H)-yl)methanone], for which the “PBMC 10 μM (% control)” value is reported as 62.5 % control.

With `C[C@H]1c2nnn(-c3ncc(F)cn3)c2CCN1C(=O)c1ccnc(C(F)(F)F)c1F` (single isomer, unassigned) [Example 229, (S*)-(3-fluoro-2-(trifluoromethyl)pyridin-4-yl)(1-(5-fluoropyrimidin-2-yl)-4-methyl-6,7-dihydro-1H-[1,2,3]triazolo[4,5-c]pyridin-5(4H)-yl)methanone], the “PBMC 10 μM (% control)” value came out at 116.4 % control.

Consider `C[C@@H]1c2ncn(-c3ccc(F)cn3)c2CCN1C(=O)c1cccc(C(F)(F)F)c1Cl` (single isomer, unassigned) [Example 40, (R*)-(2-chloro-3-(trifluoromethyl)phenyl)(1-(5-fluoropyridin-2-yl)-4-methyl-6,7-dihydro-1H-imidazo[4,5-c]pyridin-5(4H)-yl)methanone], for which the “PBMC 10 μM (% control)” value is 36.5 % control.

In the case of `C[C@H]1c2nnn(-c3ncccn3)c2CCN1C(=O)c1cccc(C(F)(F)F)c1Cl` (single isomer, unassigned) [Example 87, (4S*)-5-{[2-Chloro-3-(trifluoromethyl)phenyl]carbonyl}-4-methyl-1-pyrimidin-2-yl-4,5,6,7-tetrahydro-1H-[1,2,3]triazolo[4,5-c]pyridine], the “PBMC 10 μM (% control)” value amounted to 21.7 % control.

Consider `C[C@H]1Cc2c(nnn2-c2ccn[nH]2)[C@H](C)N1C(=O)c1cccc(C(F)(F)F)c1Cl` [Example 319, (2-chloro-3-(trifluoromethyl)phenyl)((4S,6S)-4,6-dimethyl-1-(1H-pyrazol-5-yl)-6,7-dihydro-1H-[1,2,3]triazolo[4,5-c]pyridin-5(4H)-yl)methanone], for which the “PBMC 10 μM (% control)” value is −6.8 % control.

Take `C[C@@H]1c2nnn(-c3ccn(C)n3)c2CCN1C(=O)c1cccc(C(F)(F)F)c1Cl` (single isomer, unassigned) [Example 169, (R*)-(2-Chloro-3-(trifluoromethyl)phenyl)(4-methyl-1-(1-methyl-1H-pyrazol-3-yl)-6,7-dihydro-1H-[1,2,3]triazolo[4,5-c]pyridin-5(4H)-yl)methanone]: the “PBMC 10 μM (% control)” value is reported as 95.0 % control.

Take `C[C@H]1Cc2c(nnn2-c2ncc(F)cn2)CN1C(=O)c1cccc(Cl)c1Cl` (single isomer, unassigned) [Example 205, (6S*)-5-[(2,3-Dichlorophenyl)carbonyl]-1-(5-fluoropyrimidin-2-yl)-6-methyl-4,5,6,7-tetrahydro-1H-[1,2,3]triazolo[4,5-c]pyridine]: the “PBMC 10 μM (% control)” value worked out at 17.1 % control.

Take `C[C@H]1c2ncn(-c3ccccn3)c2CCN1C(=O)c1cccc(C(F)(F)F)c1Cl` (single isomer, unassigned) [Example 45, (4 S*)-5-{[2-Chloro-3-(trifluoromethyl)phenyl]carbonyl}-4-methyl-1-pyridin-2-yl-4,5,6,7-tetrahydro-1H-imidazo[4,5-c]pyridine]: the “PBMC 10 μM (% control)” value was 29.4 % control.

In the case of `O=C(c1cccc(C(F)(F)F)c1Cl)N1CCc2c(nnn2-c2ncccn2)C1` [Example 65, 5-{[2-Chloro-3-(trifluoromethyl)phenyl]carbonyl}-1-pyrimidin-2-yl-4,5,6,7-tetrahydro-1H-[1,2,3]triazolo[4,5-c]pyridine], the “PBMC 10 μM (% control)” value stood at 5.8 % control.

Turning to `Cc1c(C(=O)N2Cc3nnn(-c4ncc(F)cn4)c3C[C@H]2C)cccc1C(F)(F)F` (single isomer, unassigned) [Example 207, (6R*)-1-(5-Fluoropyrimidin-2-yl)-6-methyl-5-{[2-methyl-3-(trifluoromethyl)phenyl]carbonyl}-4,5,6,7-tetrahydro-1H-[1,2,3]triazolo[4,5-c]pyridine], the “PBMC 10 μM (% control)” value was 45.0 % control.

For the molecule `Cc1ccnc(-n2nnc3c2CCN(C(=O)c2cccc(Cl)c2Cl)C3C)c1` (stereo not drawn) [Example 237, (2,3-dichlorophenyl)(4-methyl-1-(4-methylpyridin-2-yl)-6,7-dihydro-1H-[1,2,3]triazolo[4,5-c]pyridin-5(4H)-yl)methanone], the “PBMC 10 μM (% control)” value is −5.1 % control.

For `CC1c2nnn(-c3ncccn3)c2CCN1C(=O)c1cccc(C(F)(F)F)c1Cl` (single isomer, unassigned) [Example 88, (4R*)-5-{[2-Chloro-3-(trifluoromethyl)phenyl]carbonyl}-4-methyl-1-pyrimidin-2-yl-4,5,6,7-tetrahydro-1H-[1,2,3]triazolo[4,5-c]pyridine], the “PBMC 10 μM (% control)” value is 13.3 % control.

Regarding `C[C@@H]1c2ncn(-c3ncc(F)cn3)c2CCN1C(=O)c1cccc(C(F)(F)F)c1Cl` (single isomer, unassigned) [Example 193, (R*)-(2-Chloro-3-(trifluoromethyl)phenyl)(1-(5-fluoropyrimidin-2-yl)-4-methyl-6,7-dihydro-1H-imidazo[4,5-c]pyridin-5(4H)-yl)methanone], the “PBMC 10 μM (% control)” value was determined as 1.4 % control.

With `CC1Cc2c(nnn2-c2ccccn2)CN1C(=O)c1cccc(C(F)(F)F)c1Cl` (stereo not drawn) [Example 116, 5-{[2-Chloro-3-(trifluoromethyl)phenyl]carbonyl}-6-methyl-1-pyridin-2-yl-4,5,6,7-tetrahydro-1H-[1,2,3]triazolo[4,5-c]pyridine], the “PBMC 10 μM (% control)” value came out at 45.3 % control.

Turning to `C[C@@H]1Cc2c(nnn2-c2ccn[nH]2)[C@@H](C)N1C(=O)c1cccc(C(F)(F)F)c1Cl` [Example 296, (2-chloro-3-(trifluoromethyl)phenyl)((4R,6R)-4,6-dimethyl-1-(1H-pyrazol-5-yl)-6,7-dihydro-1H-[1,2,3]triazolo[4,5-c]pyridin-5(4H)-yl)methanone], the “PBMC 10 μM (% control)” value turned out to be 3.6 % control.

Regarding `Cc1cccnc1-n1nnc2c1CCN(C(=O)c1cccc(C(F)(F)F)c1Cl)[C@@H]2C` (single isomer, unassigned) [Example 291, (R*)-(2-chloro-3-(trifluoromethyl)phenyl)(4-methyl-1-(3-methylpyridin-2-yl)-6,7-dihydro-1H-[1,2,3]triazolo[4,5-c]pyridin-5(4H)-yl)methanone], the “PBMC 10 μM (% control)” value is −7.1 % control.

On to `Cc1ccnc(-n2nnc3c2CCN(C(=O)c2cccc(C(F)(F)F)c2Cl)[C@@H]3C)c1` (single isomer, unassigned) [Example 185, (R*)-(2-chloro-3-(trifluoromethyl)phenyl)(4-methyl-1-(4-methylpyridin-2-yl)-6,7-dihydro-1H-[1,2,3]triazolo[4,5-c]pyridin-5(4H)-yl)methanone], for which the “PBMC 10 μM (% control)” value is −3.7 % control.

Regarding `Cc1cccc(-n2nnc3c2CCN(C(=O)c2cccc(C(F)(F)F)c2Cl)[C@@H]3C)n1` (single isomer, unassigned) [Example 226, (R*)-(2-chloro-3-(trifluoromethyl)phenyl)(4-methyl-1-(6-methylpyridin-2-yl)-6,7-dihydro-1H-[1,2,3]triazolo[4,5-c]pyridin-5(4H)-yl)methanone], the “PBMC 10 μM (% control)” value is 58.0 % control.
